Reference: patent US8283324B2, “Immunomodulatory and anti-tumour peptides” (Centro de Ingenieria Genetica y Biotecnologia, priority 2006, dated 2012)

Legend:
[1] = system: mice lung cancer 3LLD122 cells; assay: metastasis model of Lewis' carcinoma; format: in vivo, C57BI/6 female mice; details: 4 mg/kg s.c. after 7 days; sacrifice 21 days after removal of primary tumor; FIG. 8
Procedure: Eight-to-ten weeks-old C57BI/6 female mice were used for this assay (n=8 animals per experimental group). These animals were inoculated in the posterior right footpad with 250,000 mice lung cancer 3LLD122 cells. After 7 days, a 4 mg/kg of body weight dose of the L-2 analogous peptide was subcutaneously injected. When tumors reached 8 mm in diameter, the primary tumor was surgically removed from the carrier leg. Mice were sacrificed 21 days after this surgical procedure. Lungs were weighed to indicate the amount of metastasis on them.

IFN-α gene = IFN-α gene expression in human mononuclear cells (RT-PCR); format: cell-based; details: 40 μg/ml, 18 h
Procedure: (§1) For this assay, human mononuclear cells were isolated by a Ficoll-Hypaque gradient from a leukocyte concentrate or “Buffy Coat” of a donor. Up to 5×10^6 were seeded in 24-well plates in RPMI 1640 medium supplemented with 10% calf fetal serum. Each peptide was further added at 40 μg/ml in a 0.1 ml volume of RPMI medium and cells were cultured for 18 h at 37° C. and 5% of CO2. Total RNA was extracted by using the TriReagent method. Afterwards, the expressions of IFN-α, IFN-γ and IL-12 genes were determined by the reverse transcription reaction and PCR amplification (RT-PCR kit, Perkin Elmer). Results are shown as relative amounts of messenger RNA normalized against expression levels of the β-actin housekeeping gene.

TC-1 cells = assay: double challenge schedule with TC-1 tumor cells; format: in vivo; details: second challenge, day 49 after the first challenge
Procedure: Animals without established tumors in the schedule of the previous example (n=6) were further challenged for a second time with 50,000 TC-1 cells in a 200 μl volume in PBS by subcutaneous route in the left hind limb (day 49 after the first challenge). The same amount of tumor cells were inoculated to “naïve” mice from the same litter as control group of the experiment, to guarantee the homogeneity in age, and were kept under the same conditions without receiving the peptide (n=10 animals). Parameters evaluated to measure the anti-tumoral effect of the L-2 peptide included the time of tumor grafting and animal survival.

IFN-γ gene = IFN-γ gene expression in human mononuclear cells (RT-PCR); format: cell-based; details: 40 μg/ml, 18 h; mRNA normalized against β-actin; FIG. 3A
Procedure: as §1

[2] = system: H-125 (non-small human ling cancer cells); assay: growth of tumor cells, crystal violet, H-125; format: cell-based; details: 9 μM to 300 μM, 72 h; FIG. 9
Procedure: For this assay, TC-1, H-125 (non-small human ling cancer cells) and L929) murine fibroblast) cells were seeded in 96-well culture plates (Costar) at a 2×10^4 cells/ml in Dulbecco's modified Eagle's medium (DMEM)(Gibco) supplemented with Calf Fetal Serum (Gibco). After 24 h, the peptides were added to the culture in a range of 9 μM to 300 μM. […] Plates were extensively washed with tap water and plates were read at 562 nm. A pro-apoptotic peptide with a marked anti-proliferative effect in vitro was employed as positive control (Perea, S., et al (2004) Antitumor Effect of a Novel Proapoptotic Peptide that Impairs the Phosphorylation by the Protein Kinase 2 Cancer Research 64: 7127-7129).

[3] = competition ELISA for heparin-binding capacity; details: peptides at 2 μM with 250 units of heparin; FIG. 2
Procedure: This assay consists on a competition ELISA system, similar to the previously described one. The biotinylated LALF32-51 peptide was adsorbed to polystyrene plates (Costar, USA) in 1×PBS and incubated overnight at 4° C. Analogous peptides L-2, L-8, L-12 and L-20 were mixed at 2 μM with 250 units of heparin (Sodic Heparin, 5,000 U/ml, Liorad) in 1×PBS plus 0.1% of bovine serum albumin (BSA). Afterwards, mixes were added to an ELISA plate containing 0.02 μM of the biotinylated LALF32-51 peptide adsorbed to the solid surface. After a 1 h-incubation at room temperature, plates were washed five times with washing solution and the biotinylated LALF32-51 peptide fixed to the solid surface was detected by incubating for 45 min at 37° C. with streptavidin-peroxidase conjugate at a 1:2,000. Afterwards, plates were washed five times with washing solution and the substrate solution was added. After an additional incubation for 15 min, the reactions were stopped with 2 M sulphuric acid solution. The lack of heparin binding to the analogous peptides correlates with the […] optical density, because they are unable to displace the heparin bound to the biotinylated LALF32-51 peptide adsorb to the solid surface. The unlabeled LALF32-51 peptide at a 100× molar excess was used as control of the assay.

IL-12 gene = IL-12 gene expression in human mononuclear cells (RT-PCR); format: cell-based; details: 40 μg/ml, 18 h; mRNA normalized against β-actin; FIG. 3A
Procedure: as §1

With “HARIKPTFRRLKWKYKGKFW [Peptide L-2, alanine-substituted analogue of LALF 32-51]” the “metastasis (lung weight)” value [1] was “able to reduce the metastatic tumor events”, the “expression of the IFN-α gene compared to the LALF32-51 peptide” value (IFN-α gene; FIG. 3B) was “more effective” and the “expression of the IFN-α gene” value (IFN-α gene; mRNA normalized against β-actin, FIG. 3A) was “capable of inducing the expression”. The “time of tumor grafting” value (TC-1 cells; FIG. 7A) was “retarding the establishment of the tumor”, the animal survival (TC-1 cells; FIG. 7B) was “increasing animal survival” and the “expression of the IFN-γ gene” value (IFN-γ gene) was “capable of inducing the expression”. The anti-proliferative effect [2] was “dose-dependent anti-proliferative effect”, the heparin binding [3] was “unable to bind heparin” and the “expression of the IL-12 gene” value (IL-12 gene) was “capable of inducing the expression”.
